Data taken from ChEMBL document CHEMBL1201862, “PubChem BioAssay data set” (2004).
Active and inactive are the calls of the source.

Legend:
[1] = molecular target: T1, Ubiquitin-conjugating enzyme E2 N (Homo sapiens, UniProt P61088); assay type: functional;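 note: Dose-response confirmation in a TR-FRET assay detecting UBC13-driven polyubiquitin chain formation, inhibition measured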
T1 sequence (P61088 whole entry): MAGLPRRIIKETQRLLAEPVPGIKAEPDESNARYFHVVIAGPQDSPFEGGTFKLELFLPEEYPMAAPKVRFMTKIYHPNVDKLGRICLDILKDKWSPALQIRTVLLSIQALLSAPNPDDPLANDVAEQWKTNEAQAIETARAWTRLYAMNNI

[2] = molecular target: T2, Apoptotic protease-activating factor 1 (Homo sapiens, UniProt O14727); assay type: functional
T2 sequence (O14727 whole entry): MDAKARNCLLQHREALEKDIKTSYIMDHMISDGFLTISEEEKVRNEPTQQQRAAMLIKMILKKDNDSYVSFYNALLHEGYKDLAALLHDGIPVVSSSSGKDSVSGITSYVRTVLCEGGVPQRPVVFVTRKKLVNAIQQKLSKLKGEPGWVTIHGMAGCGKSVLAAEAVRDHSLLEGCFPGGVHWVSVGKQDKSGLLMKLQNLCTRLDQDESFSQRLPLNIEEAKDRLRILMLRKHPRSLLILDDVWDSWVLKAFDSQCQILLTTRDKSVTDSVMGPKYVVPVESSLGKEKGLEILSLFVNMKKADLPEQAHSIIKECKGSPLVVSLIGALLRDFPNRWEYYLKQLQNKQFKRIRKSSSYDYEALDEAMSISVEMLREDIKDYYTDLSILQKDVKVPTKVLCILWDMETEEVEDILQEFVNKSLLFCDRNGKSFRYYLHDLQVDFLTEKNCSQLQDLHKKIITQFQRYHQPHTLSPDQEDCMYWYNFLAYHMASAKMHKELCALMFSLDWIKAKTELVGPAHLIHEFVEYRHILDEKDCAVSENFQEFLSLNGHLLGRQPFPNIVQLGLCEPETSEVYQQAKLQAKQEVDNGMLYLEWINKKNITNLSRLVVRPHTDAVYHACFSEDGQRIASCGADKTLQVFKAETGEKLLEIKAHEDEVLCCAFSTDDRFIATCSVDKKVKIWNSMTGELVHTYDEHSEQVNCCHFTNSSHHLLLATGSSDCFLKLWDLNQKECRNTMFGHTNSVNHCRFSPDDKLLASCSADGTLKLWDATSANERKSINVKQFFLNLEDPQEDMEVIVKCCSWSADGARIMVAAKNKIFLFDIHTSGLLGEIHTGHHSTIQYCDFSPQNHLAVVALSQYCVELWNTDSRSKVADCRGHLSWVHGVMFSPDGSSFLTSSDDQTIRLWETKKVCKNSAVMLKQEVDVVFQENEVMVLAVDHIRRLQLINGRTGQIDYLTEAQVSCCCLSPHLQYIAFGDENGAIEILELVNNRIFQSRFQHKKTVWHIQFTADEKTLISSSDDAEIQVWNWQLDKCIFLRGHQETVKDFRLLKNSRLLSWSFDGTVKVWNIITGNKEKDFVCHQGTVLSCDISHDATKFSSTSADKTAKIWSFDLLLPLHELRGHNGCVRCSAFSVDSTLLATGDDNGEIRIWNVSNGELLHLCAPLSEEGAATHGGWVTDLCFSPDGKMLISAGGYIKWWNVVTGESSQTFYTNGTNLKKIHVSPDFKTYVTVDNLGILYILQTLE

[3] = viability of HCT116 lacking mutant beta-catenin – cell-based, human colon tumor, dose response (AID 1045); assay type: functional;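 note: HCT116 colon tumor cells with beta catenin knocked out; cells exposed to compound for 60 hours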
[4] = HIV-1 Vif–A3G interaction blockers – biochemical, TR-FRET, GST-Vif 1-94, biotin-A3G peptide, dose response retest, primary screen (AID 1117319); assay type: functional;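 note: TR-FRET signal of purified GST-Vif binding a biotinylated A3G peptide; inhibitors lower the FRET signal by blocking Vif and A3G binding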
[5] = viability of PTEN-deleted HCT116 cells – cell-based, HCT116 PTEN knockout, dose response (AID 1047); assay type: functional;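 note: HCT116 colon tumor cells with PTEN knocked out; cells exposed to compound for 60 hours before readout; potency for loss of cell viability measured by luminescence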
[6] = Luminescence Cell-Based Dose Retest to Confirm Inhibitors of Cancer Stem Cells. [Related pubchem assays (depositor defined):AID2717, AID2721]; assay type: functional; conditions: Homo sapiens
Protein Tat = molecular target: T3, Protein Tat (Human immunodeficiency virus type 1 group M subtype B (isolate HXB2)(HIV-1), UniProt P04608); assay type: functional;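 note: tat binding to TAR RNA read out by fluorescence polarization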
T3 sequence (P04608 whole entry): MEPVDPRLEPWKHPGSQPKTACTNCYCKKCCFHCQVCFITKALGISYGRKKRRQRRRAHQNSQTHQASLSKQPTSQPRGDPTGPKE

[7] = MIN6 cell viability loss – mouse insulinoma, cytotoxicity control, dose response (AID 2122); assay type: functional;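 note: confirmatory high-throughput counterscreen run to flag cytotoxic compounds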
[8] = decrease of insulin promoter-GFP reporter – imaging, high-content screening, mouse beta cells (AID 1628); assay type: functional; conditions: MIN6
[9] = reduced cellular PGC1a acetyl-lysine signal – cell-based, cherry-picked samples, dose response (AID 720514); assay type: functional;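 note: potency may reflect raised or lowered acetylation signal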
[10] = viability loss in HepG2 hepatoma cells – cell-based, ATP luminescence, cherry-pick, activator set 2, cytotoxicity control, dose response (AID 1053143); assay type: functional
[11] = M. tuberculosis H37Rv growth inhibitors, H37Rv strain (AID 1626); assay type: functional
[12] = molecular target: SWI/SNF-related matrix-associated actin-dependent regulator of chromatin subfamily A member 2 (Homo sapiens, UniProt P51531); assay: Luminescence-based cell-based high throughput dose response assay to identify activators of the function of SWI/SNF related, matrix associated, actin dependent regulator of chromatin, subfamily a, member 2 (SMARCA2, BRM).; assay type: functional
[13] = Counterscreen for activators of the function of SWI/SNF related, matrix associated, actin dependent regulator of chromatin, subfamily a, member 2 (SMARCA2, BRM): Luminescence-based cell-based high throughput dose response assay to identify non-selective compounds using the VP16 reporter assay.; assay type: functional
Major prion protein = Major prion protein (Homo sapiens, UniProt P04156); assay type: functional, cell-based
[14] = non-specific 3'UTR reporter inhibition in Clone20-Shn3RL – cell-based, Renilla luciferase, cherry-picked, counter-screen for Shn3 inhibitor project, dose response (AID 624133); assay type: functional
[15] = HGIII-sPLA2 enzyme inhibition potency – biochemical, QFRET, IC50, dose response (AID 743457);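 note: green fluorescence rise as the enzyme cleaves BODIPY PC-A2 in liposomes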
[16] = reduction of Shn3 3'UTR-driven luciferase in osteoblasts – cell-based, Clone20 osteoblasts, firefly luciferase, cherry-picked, dose response (AID 624132); assay type: functional;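 note: firefly luciferase luminescence from reporter carrying the Shn3 3'UTR in osteoblasts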
[17] = blockers of bursicon-stimulated LGR2 cAMP reporter – cell-based, HEK293, CRE-luciferase reporter, cherry pick, set 2, dose response (AID 743343); assay type: functional;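 note: transfected cells were stimulated with diluted bursicon conditioned medium after compound addition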
[18] = A549 cell cytotoxicity, dose response, cytotoxicity control, plate reader, cherry-pick, antagonist series (AID 743412); assay type: functional, cell-based
[19] = blockade of melanocortin 4 receptor signaling – cell-based, plate reader, cherry pick, counter-screen for LGR2 antagonist project, dose response (AID 743444); assay type: functional;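 note: transfected HEK 293 cells stimulated with alpha-MSH peptide; potency of inhibitors of the alpha-MSH evoked signal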
[20] = molecular target: T4, Oxysterols receptor LXR-beta (Homo sapiens, UniProt P55055); assay type: functional, cell-based;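 note: agonist activity at LXR measured by a cell-based luminescence readout across a dose range, run as a counterscreen for daf-12 agonists; HEK293 cells with Gal4-LXR fusion and GAL4-driven luciferase reporter; potency for activation of Gal4-LXR reporter so compounds are agonists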
T4 sequence (P55055 whole entry): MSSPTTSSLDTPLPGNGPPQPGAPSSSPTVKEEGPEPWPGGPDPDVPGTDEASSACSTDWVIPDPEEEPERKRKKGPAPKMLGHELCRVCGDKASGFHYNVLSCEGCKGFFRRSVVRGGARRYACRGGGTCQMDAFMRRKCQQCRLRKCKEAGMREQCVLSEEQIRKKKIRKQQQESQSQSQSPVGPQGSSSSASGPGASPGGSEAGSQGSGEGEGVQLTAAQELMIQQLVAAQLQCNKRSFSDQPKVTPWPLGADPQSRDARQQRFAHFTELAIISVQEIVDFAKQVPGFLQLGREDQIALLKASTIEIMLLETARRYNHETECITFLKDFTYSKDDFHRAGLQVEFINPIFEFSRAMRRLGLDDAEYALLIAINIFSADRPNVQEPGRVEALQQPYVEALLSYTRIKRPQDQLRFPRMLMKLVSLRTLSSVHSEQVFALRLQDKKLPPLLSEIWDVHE

COc1ccc(C(CNC(=O)COc2c(C)cc(C)cc2C)N2CCOCC2)cc1 (stereo not drawn)
IC50 [1]: > 20 µM (inactive) | IC50 [2]: > 100 µM (inactive)

COCCNc1nnc(SC(C)C(=O)Nc2ccc(-c3nc4ccc(C)cc4s3)cc2)s1 (stereo not drawn)
EC50 [3]: 39.1 µM (active) | IC50 [4]: > 50 µM (active) | EC50 [5]: 30 µM (active) | AC50 [6]: 10.5 µM (active) | IC50 (Protein Tat): > 100 µM (active)

COc1ccc(C(NC(=O)c2c(F)c(F)c(F)c(F)c2F)c2ccccc2)cc1 (stereo not drawn)
EC50 [3]: 16.8 µM (active) | IC50 [7]: 1.7 µM (active) | EC50 [5]: 27.4 µM (active) | IC50 [8]: 1.79 µM (active) | AC50 [9]: 4.77 µM (active)

Cc1oc2c(c1C(=O)O)C(=O)c1ccccc1C2=O
IC50 [2]: 11.4 µM (active)

Cc1cc(NC(=O)c2ccccc2)ncc1NC(=O)c1ccco1
AC50 [10]: 26 µM (active)

CCCc1ccc(-c2cc(C(=O)NC3=NCCS3)c3ccccc3n2)cc1
IC50 [11]: > 100 µM (active)

O=C(CCCc1ccccc1)NCc1ccccc1
EC50 [12]: > 91.3 µM (inactive) | EC50 [13]: > 91.3 µM (inactive)

COCC(=O)Nc1ccc(Br)c(C)c1
IC50 [11]: > 100 µM (active)

NC(=O)c1ccc(-c2ccc(Br)cc2)o1
IC50 (Major prion protein): 7.42 µM (active) | IC50 (cells): > 138 µM (inactive)

O=C1/C(=C/c2ccccn2)SC(=S)N1Nc1ncc(C(F)(F)F)cc1Cl
AC50 [14]: 33.1 µM (active) | IC50 [15]: 47.8 µM (inactive) | AC50 [16]: 49.9 µM (active)

N#C[C@@H]1[C@H](c2ccc(C#CC3CCCCC3)cc2)[C@@H](CO)N1S(=O)(=O)c1ccccc1
AC50 [17]: 12.8 µM (active) | AC50 [18]: 27.9 µM (active) | AC50 [19]: 8.18 µM (active)

CCc1ccc(NC(=O)CSc2nnc(-c3cnccn3)n2Cc2ccco2)cc1
AC50 [9]: 32.5 µM (active)

Cc1ccc2nc(NNC(=O)c3ccc4c(c3)OCCO4)sc2c1
IC50 [15]: > 122 µM (inactive)

N#C/C(=C/c1cccs1)c1nc2ccccc2[nH]1
EC50 [12]: > 91.1 µM (inactive) | EC50 [13]: > 91.1 µM (inactive)

O=C(Nc1ncccc1O)c1cc2ccccc2o1
AC50 [10]: 26 µM (active) | EC50 [20]: > 67.6 µM (inactive)

O=C(Nc1nc(-c2cccc(Br)c2)cs1)Oc1ccccc1
EC50 [12]: > 91.2 µM (inactive) | EC50 [13]: > 91.2 µM (inactive)

COC(=O)CSc1nc(Cc2ccccc2)nc2ccccc12
IC50 (Major prion protein): 3.29 µM (active) | IC50 (cells): > 138 µM (inactive)

Cc1nc2ccc(Br)cc2c(-c2ccccc2)c1C(=O)O
IC50 (Major prion protein): 5.47 µM (active) | IC50 (cells): > 138 µM (inactive)
